What was measured:
activated Th lymphocytes = experiment: Flow cytometry of activated Th lymphocytes in PBMC; assay type: in vivo, Balb/c based male mice; details: 100 mg/kg orally for 14 days
Procedure: (§1) Balb/c based male mice (8 weeks old) were divided into a vehicle control group, a group in which 5-aminolevulinic acid (hereinafter, referred as ‘ALA’, 100 mg/kg) was orally administered for 14 days (2 weeks), a group in which Lactobacillus reuteri ELF (hereinafter, referred to as ‘LAB’, 100 mg/kg) was orally administered for 14 days (2 weeks), a group in which a mixture sample (50 mg/kg) of Lactobacillus reuteri ELF and 5-aminolevulinic acid (hereinafter, referred to as ‘ALA+LAB’) was orally administered for 14 days (2 weeks), and a group in which the mixture sample (100 mg/kg) of Lactobacillus reuteri ELF and 5-aminolevulinic acid was orally administered for 14 days (2 weeks).
(§2) After 2 weeks of administration, in order to obtain PBMC in the mice, the blood was extracted using a syringe (3 ml) treated with heparin by a cardiac puncture method. The extracted blood was mixed and treated with 10 ml of ACK solution (a solution obtained by mixing 8.3 g of NH4Cl and 1 g of KHCO3 with demineralized water to which 0.1 Mm EDTA was added) prepared in advance at room temperature for 5 minutes, thereby removing red blood cells. […] Thereafter, the resultants were washed with PBS three times or more, and frequencies (%) of activated CD4^+ CD25^+, CD44^+ CD69^+, CD49b^+ NK1.1^+, and CD25^+ CTLA-4^+ cells were analyzed using a cell quest program of flow cytometry.

CD3 T cells = experiment: Flow cytometry, frequency of CD3 T cells; assay type: in vivo, Balb/c based male mice; details: 100 mg/kg orally for 14 days
CD4^+ CD25^+ cells = experiment: Flow cytometry, frequency of CD4^+ CD25^+ cells; assay type: in vivo, Balb/c based male mice; details: 100 mg/kg orally for 14 days
Procedure: as §1, §2

Gr-1/CD11b cells = experiment: Flow cytometry, frequency of Gr-1/CD11b cells; assay type: in vivo, Balb/c based male mice; details: 100 mg/kg orally for 14 days
NKG2D = experiment: Flow cytometry, frequency of NKG2D, bioactive marker of NK cells; assay type: in vivo, Balb/c based male mice; details: 100 mg/kg orally for 14 days
[1] = tested on: IFN-γ, IL-2, IL-4, and IL-10; experiment: ELISA absorbance of culture supernatant of spleen cells (cytokine not specified); assay type: in vivo, Balb/c based male mice; details: 100 mg/kg orally for 14 days; spleen cells on anti-CD3 mAb, 48 hours
Procedure: as §1
(§3) After 2 weeks of administration, the spleen was harvested from the mice, and spleen cells were isolated with a 100 mesh filter. Before one day of measurement, anti-CD3 mAb (1 μg/ml) was coated on a 96-well plate and kept overnight in a refrigerator at 4° C., and the 96-well plate was washed with D-PBS two times. […] Levels of IFN-γ, IL-2, IL-4, and IL-10 in the culture supernatant were measured by enzyme-linked immuno-sorbent assay (ELISA). […] Thereafter, absorbance was measured at 450 nm in an ELISA reader.

IL-2 = IL-2 production amount in cultured spleen cells (ELISA); assay type: in vivo, Balb/c based male mice; details: single agents 100 mg/kg, mixture sample 50 and 100 mg/kg, orally for 14 days
Procedure: as §1, §3

IL-4 = IL-4 production amount in cultured spleen cells (ELISA); assay type: in vivo, Balb/c based male mice; details: single agents 100 mg/kg, mixture sample 50 and 100 mg/kg, orally for 14 days
Procedure: as §1, §3

IFN-γ = IFN-γ production amount in cultured spleen cells (ELISA); assay type: in vivo, Balb/c based male mice; details: single agents 100 mg/kg, mixture sample 50 and 100 mg/kg, orally for 14 days
Procedure: as §1, §3

[2] = tested on: nitrogen oxide (NO) in macrophage; experiment: Nitrogen oxide (NO) formation in macrophage; assay type: in vivo, Balb/c based mice; details: 100 mg/kg orally for 14 days; peritoneal macrophages cultured 72 hours
Procedure: Balb/c based mice were divided into a vehicle control group, a group in which 5-aminolevulinic acid (100 mg/kg) was orally administered for 14 days (2 weeks), a group in which Lactobacillus reuteri ELF (100 mg/kg) was orally administered for 14 days (2 weeks), a group in which a mixture sample (50 mg/kg) of Lactobacillus reuteri ELF and 5-aminolevulinic acid was orally administered for 14 days (2 weeks), and a group in which the mixture sample (100 mg/kg) of Lactobacillus reuteri ELF and 5-aminolevulinic acid was orally administered for 14 days (2 weeks). Three days before termination of administration, after 1.5 ml of 10% proteose peptone (Difco) aqueous solution was administered into the abdominal cavity of the mice, the mice were sacrificed, and the abdomen was disinfected with alcohol. The skin of the abdomen was cut using scissors, and the peritoneum was exposed. Then, 4.5 ml of cooled Hanks' balanced salt solution (HBSS) was injected into the abdominal cavity using a syringe and abdominal massage was performed thereon for 30 seconds, followed by recovering a peritoneal washing fluid using a syringe. […] In addition, after 200 μl of […] reagent II in which 0.06 g of N-1-naphthylene amidehydrochloride was dissolved in 50 ml of distilled water was rapidly added thereto, and stirred, absorbance was measured at 540 nm.

[3] = tested on: peritoneal cell population; experiment: Proliferation of peritoneal cell population (number of lymphocytes); assay type: in vivo, Balb/c based mice; details: abdominal cavity, orally for 14 days
Procedure: Balb/c based mice were divided into a vehicle control group, a group in which 5-aminolevulinic acid (100 mg/kg) was orally administered for 14 days (2 weeks), a group in which Lactobacillus reuteri ELF (100 mg/kg) was orally administered for 14 days (2 weeks), a group in which a mixture sample (50 mg/kg) of Lactobacillus reuteri ELF and 5-aminolevulinic acid was orally administered for 14 days (2 weeks), and a group in which the mixture sample (100 mg/kg) of Lactobacillus reuteri ELF and 5-aminolevulinic acid was orally administered for 14 days (2 weeks). Two days before termination of administration, 0.5 ml of 2% normal saline suspension of starch was injected into the abdominal cavity of the mice to thereby be immunized. The mice were sacrificed, and the abdomen was disinfected with alcohol. […] After recovered cells were cooled, washed with the same HBSS solution two times, the number of peritoneal cells existing therein was directly measured using a hemocytometer under a microscope. […] Thereafter, the resultants were washed with PBS three times or more, and frequencies (%) of activated CD11b^+ CD14^+, CD3^+ CD4^+, and CD3^+ CD8^+ cells were analyzed using the Cell Quest program of a flow cytometry, and a total cell count was applied thereto, thereby calculating the absolute number of peritoneal cell population.

[4] = tested on: cytochrome c oxidase (COX); experiment: COX activity in liver mitochondria; assay type: in vivo, Balb/c based mice; details: 100 mg/kg orally for 14 days
Procedure: Balb/c based mice were divided into a vehicle control group, a group in which 5-aminolevulinic acid (100 mg/kg) was orally administered for 14 days (2 weeks), a group in which Lactobacillus reuteri ELF (100 mg/kg) was orally administered for 14 days (2 weeks), and a group in which the mixture sample (100 mg/kg) of Lactobacillus reuteri ELF and 5-aminolevulinic acid was orally administered for 14 days (2 weeks). In order to measure cytochrome c oxidase (COX) activity in the liver mitochondria of the mouse after administration, proteins were extracted from the liver cells of the mouse and measured using a COX activity assay kit (TA100, Toyo B Net).

NCC(=O)CCC(=O)O [5-aminolevulinic acid]
frequency of activated Th lymphocytes in PBMC, increase as compared to the negative control group (activated Th lymphocytes): ≥ 46.2% | frequency of CD3 T cells as compared to the control group (CD3 T cells): increased | frequency of CD4^+ CD25^+ cells as compared to the control group (CD4^+ CD25^+ cells): significantly increased | frequency of Gr-1/CD11b cells as compared to the control group (Gr-1/CD11b cells): significantly increased | frequency of NKG2D as compared to the control group (NKG2D): significantly increased | ELISA absorbance at 450 nm relative to control group (NC) [1]: increased two times or more | IL-2 production amount as compared to control group (NC) (IL-2): slightly increased | IL-4 production amount as compared to control group (NC) (IL-4): slightly increased | IFN-γ production amount as compared to control group (NC) (IFN-γ): slightly increased | nitrogen oxide (NO) production amount as compared to the control group (NC) [2]: statistically significantly increased | number of lymphocytes as compared to the control group [3]: increased | COX activity in liver mitochondria relative to control group [4]: increased by two times or more
